In patent US11028077B2, “Crystalline pharmaceutical and methods of preparation and use thereof” (NOVARTIS PHARMACEUTICALS CORPORATION, priority 2008, dated 2021):

System: tester strains
Experiment: In vitro Ames bacterial reverse mutation assay
Assay type: cell-based
Details: presence or absence of microsomal (S9) enzymes
Source text: Therefore, the compound of Formula I was judged to be not mutagenic.

Structure (SMILES): CS(=O)(=O)c1cccc(C[C@H](NC(=O)c2c(Cl)cc3c(c2Cl)CCN(C(=O)c2ccc4ccoc4c2)C3)C(=O)O)c1 [compound of Formula I]
- mutagenicity (revertants per plate): not mutagenic
